From patent publication US11053204B2, “Pyrimidinyloxy benzene derivatives as herbicides” (FMC Corporation, priority 2015, dated 2021)

Legend:
Format in all cases: in vivo
kochia (Kochia scoparia) [1] = test: Test A preemergence, visual injury rating
Outline: (§1)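 Pre- and postemergence greenhouse screen. Soil: loam + sand. Spray carrier: solvent mixture, non-phytotoxic, with surfactant. Post timing at 1–2 leaves, height 2–10 cm. Readout: visual injury on a 0–100 scale roughly 10 days after application, untreated plants as reference.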

[2] = system: barnyardgrass (Echinochloa crus-galli); test: Test A preemergence, visual injury rating
Outline: as §1

[3] = system: ragweed (common ragweed, Ambrosia elatior); test: Test A preemergence, visual injury rating
Outline: as §1

[4] = system: Italian ryegrass (Lolium multiflorum); test: Test A preemergence, visual injury rating
Outline: as §1

[5] = system: giant foxtail (Setaria faberii); test: Test A preemergence, visual injury rating
Outline: as §1

[6] = system: pigweed (Amaranthus retroflexus); test: Test A preemergence, visual injury rating
Outline: as §1

kochia (Kochia scoparia) [7] = test: Test A postemergence, visual injury rating
Outline: as §1

[8] = system: barnyardgrass (Echinochloa crus-galli); test: Test A postemergence, visual injury rating
Outline: as §1

[9] = system: ragweed (common ragweed, Ambrosia elatior); test: Test A postemergence, visual injury rating
Outline: as §1

[10] = system: Italian ryegrass (Lolium multiflorum); test: Test A postemergence, visual injury rating
Outline: as §1

[11] = system: galium (catchweed bedstraw, Galium aparine); test: Test A postemergence, visual injury rating
Outline: as §1

[12] = system: wheat (Triticum aestivum); test: Test A postemergence, visual injury rating
Outline: as §1

[13] = system: giant foxtail (Setaria faberii); test: Test A postemergence, visual injury rating
Outline: as §1

[14] = system: pigweed (Amaranthus retroflexus); test: Test A postemergence, visual injury rating
Outline: as §1

corn (Zea mays) = test: Test A postemergence, visual injury rating
Outline: as §1

[15] = system: blackgrass (Alopecurus myosuroides); test: Test A postemergence, visual injury rating
Outline: as §1

[16] = system: barnyardgrass (Echinochloa crus-galli); test: Test B flooded paddy test, plant response rating; details: 250 g ai/ha; Flood; scale of 0 to 100 where 0 is no effect and 100 is complete control; 13 to 15 days
Outline: (§2)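 Ratings were visual and made relative to untreated controls after 13 to 15 greenhouse days.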

rice (Oryza sativa) = test: Test B flooded paddy test, plant response rating; details: 250 g ai/ha; Flood; scale of 0 to 100 where 0 is no effect and 100 is complete control; 13 to 15 days
Outline: as §2

[17] = system: ducksalad (Heteranthera limosa); test: Test B flooded paddy test, plant response rating; details: 250 g ai/ha; Flood; scale of 0 to 100 where 0 is no effect and 100 is complete control; 13 to 15 days
Outline: as §2

[18] = system: sedge, umbrella (small-flower umbrella sedge, Cyperus difformis); test: Test B flooded paddy test, plant response rating; details: 250 g ai/ha; Flood; scale of 0 to 100 where 0 is no effect and 100 is complete control; 13 to 15 days
Outline: as §2

[19] = 31 g ai/ha, 0 to 100 scale, 0 no effect, 100 complete control
[20] = 125 g ai/ha, 0 to 100 scale (0 no effect, 100 complete control)
[21] = 31 g ai/ha, 0 to 100 scale (0 no effect, 100 complete control)
[22] = 125 g ai/ha, 0 to 100 scale, 0 is no effect, 100 is complete control, approximately 10 days
[23] = 31 g ai/ha, 0 to 100 scale, 0 is no effect, 100 is complete control, approximately 10 days

| Compound | Plant response rating, Kochia (kochia (Kochia scoparia) [1]; [19]) | Plant response rating, Kochia (kochia (Kochia scoparia) [1]; [20]) | Plant response rating, Barnyardgrass [2, 19] | Plant response rating, Barnyardgrass [2, 20] | Plant response rating, Ragweed [3, 19] | Plant response rating, Ragweed [3, 20] | Plant response rating, Ryegrass, Italian [4, 19] | Plant response rating, Ryegrass, Italian [4, 20] | Plant response rating, Foxtail, Giant [5, 19] | Plant response rating, Foxtail, Giant [5, 20] | Plant response rating, Pigweed [6, 19] | Plant response rating, Pigweed [6, 20] | Kochia plant response rating (kochia (Kochia scoparia) [7]; [21]) | Kochia plant response rating (kochia (Kochia scoparia) [7]; [22]) | Barnyardgrass plant response rating [8, 22] | Ragweed plant response rating [9, 21] | Ragweed plant response rating [9, 22] | Ryegrass, Italian plant response rating [10, 21] | Ryegrass, Italian plant response rating [10, 22] | Galium plant response rating [11, 21] | other results |
| --- | --- | --- | --- | --- | --- | --- | --- | --- | --- | --- | --- | --- | --- | --- | --- | --- | --- | --- | --- | --- | --- |
| N#CCc1ccccc1Oc1ncc(Cl)cn1 [Compound 140] | 0 | 40 | 0 | 0 | 0 | 0 | 10 | 10 | 0 | 0 | 0 | 10 | 0 | 30 | 0 | 0 | 0 | 0 | 0 | 0 | Barnyardgrass plant response rating [8, 23]: 0; Galium plant response rating [11, 22]: 0; Wheat plant response rating [12, 21]: 0; Wheat plant response rating [12, 22]: 0; Foxtail, Giant plant response rating [13, 21]: 0; Foxtail, Giant plant response rating [13, 22]: 0; Pigweed plant response rating [14, 21]: 0; Pigweed plant response rating [14, 22]: 20; Corn plant response rating (corn (Zea mays); [21]): 0; Corn plant response rating (corn (Zea mays); [22]): 0; Blackgrass plant response rating [15, 21]: 0; Blackgrass plant response rating [15, 22]: 0; Plant response rating, Barnyardgrass [16]: 0; Plant response rating, Rice (rice (Oryza sativa)): 0; Plant response rating, Ducksalad [17]: 0; Plant response rating, Sedge, Umbrella [18]: 0 |
| CCCCCC(C#N)c1ccccc1Oc1ncc(Cl)cn1 (stereo not drawn) [Compound 141, 2-[(5-chloro-2-pyrmidinyl)oxy]-α-pentylbenzeneacetonitrile] | 10 | 20 | 0 | 60 | 0 | 30 | 0 | 10 | 10 | 100 | 0 | 90 | 50 | 60 | 20 | 0 | 20 | 0 | 10 | 40 | Barnyardgrass plant response rating [8, 23]: 10; Galium plant response rating [11, 22]: 60; Wheat plant response rating [12, 21]: 0; Wheat plant response rating [12, 22]: 0; Foxtail, Giant plant response rating [13, 21]: 20; Foxtail, Giant plant response rating [13, 22]: 40; Pigweed plant response rating [14, 21]: 40; Pigweed plant response rating [14, 22]: 70; Corn plant response rating (corn (Zea mays); [21]): 10; Corn plant response rating (corn (Zea mays); [22]): 20; Blackgrass plant response rating [15, 21]: 0; Blackgrass plant response rating [15, 22]: 10; Plant response rating, Barnyardgrass [16]: 20; Plant response rating, Rice (rice (Oryza sativa)): 10; Plant response rating, Ducksalad [17]: 70; Plant response rating, Sedge, Umbrella [18]: 50 |
| N#Cc1cccc(Oc2ncc(Cl)cn2)c1C(=O)CCC(F)(F)F [Compound 142] | 0 | 0 | 0 | 0 | 0 | 0 | 0 | 0 | 0 | 0 | 0 | 0 | 0 | 10 | 0 | 0 | 20 | 0 | 0 | 0 | Barnyardgrass plant response rating [8, 23]: 0; Galium plant response rating [11, 22]: 20; Wheat plant response rating [12, 21]: 0; Wheat plant response rating [12, 22]: 0; Foxtail, Giant plant response rating [13, 21]: 0; Foxtail, Giant plant response rating [13, 22]: 0; Pigweed plant response rating [14, 21]: 0; Pigweed plant response rating [14, 22]: 20; Corn plant response rating (corn (Zea mays); [21]): 0; Corn plant response rating (corn (Zea mays); [22]): 10; Blackgrass plant response rating [15, 21]: 0; Blackgrass plant response rating [15, 22]: 0; Plant response rating, Barnyardgrass [16]: 0; Plant response rating, Rice (rice (Oryza sativa)): 0; Plant response rating, Ducksalad [17]: 0; Plant response rating, Sedge, Umbrella [18]: 0 |
| N#CC(CCCCC(F)(F)F)c1ccccc1Oc1ncc(Cl)cn1 (stereo not drawn) [Compound 145] | 0 | 40 | 40 | 80 | 0 | 30 | 10 | 50 | 90 | 100 | 100 | 100 | 70 | 90 | 80 | 10 | 20 | 10 | 40 | 40 | Barnyardgrass plant response rating [8, 21]: 30; Galium plant response rating [11, 22]: 80; Wheat plant response rating [12, 21]: 10; Wheat plant response rating [12, 22]: 30; Foxtail, Giant plant response rating [13, 21]: 50; Foxtail, Giant plant response rating [13, 22]: 70; Pigweed plant response rating [14, 21]: 90; Pigweed plant response rating [14, 22]: 100; Corn plant response rating (corn (Zea mays); [21]): 30; Corn plant response rating (corn (Zea mays); [22]): 50; Blackgrass plant response rating [15, 21]: 40; Blackgrass plant response rating [15, 22]: 60; Plant response rating, Barnyardgrass [16]: 50; Plant response rating, Rice (rice (Oryza sativa)): 30; Plant response rating, Ducksalad [17]: 100; Plant response rating, Sedge, Umbrella [18]: 100 |
| N#Cc1cccc(Oc2ncc(Cl)cn2)c1NCCCC(F)(F)F [Compound 146] | 60 | 80 | 20 | 100 | 0 | 0 | 0 | 50 | 80 | 100 | 60 | 100 | 70 | 100 | 90 | 0 | 30 | 0 | 70 | 70 | Barnyardgrass plant response rating [8, 21]: 30; Galium plant response rating [11, 22]: 100; Wheat plant response rating [12, 21]: 20; Wheat plant response rating [12, 22]: 20; Foxtail, Giant plant response rating [13, 21]: 30; Foxtail, Giant plant response rating [13, 22]: 90; Pigweed plant response rating [14, 21]: 60; Pigweed plant response rating [14, 22]: 70; Corn plant response rating (corn (Zea mays); [21]): 20; Corn plant response rating (corn (Zea mays); [22]): 80; Blackgrass plant response rating [15, 21]: 30; Blackgrass plant response rating [15, 22]: 90; Plant response rating, Barnyardgrass [16]: 40; Plant response rating, Rice (rice (Oryza sativa)): 35; Plant response rating, Ducksalad [17]: 100; Plant response rating, Sedge, Umbrella [18]: 85 |
